From patent US7939341B2, “Membrane arrays and methods of manufacture” (Corning Incorporated, priority 2004, dated 2011)

Target: motilin receptor (Motilin) (Homo sapiens, UniProt O43193)
Test: GPCR array functional assay (Eu-GTP binding) on GAPS coated porous slide, Motilin receptor
Type: biochemical
Conditions: agonist at 1 μM, 10 nM Eu-GTP, 3 μM GDP, 1 hour incubation, time-resolved fluorescence
Protocol: 2) Assays performing—the printed GPCR arrays are then incubated with assay buffers containing GTP analogue probes in the presence or absence of receptor agonist for certain time (e.g., 45 minutes), and at the end of incubation period the assay solutions are removed, the slides are rinsed with GTP wash buffer and dried with nitrogen;
3) Imaging—when Eu-GTP is used as a probe, the slides are then directly scanned using a time-resolved fluorescence imaging system; and, if biotin-GTPγS is used as a probe, an extra incubation step is often performed before imaging. For example, the array is then further incubated with Gold particles labeled streptavadin in order to detect bounded biotin-GTPγS, resonance light scattering imaging system is then used.
The EuGTP assay buffer contained 10 nM Eu-GTP, 50 mM HEPES buffer, pH 7.4, 3 μM GDP, 10 mM MgCl2, 100 mM NaCl, and 0.1% protein blocker. At the end of the incubation, the assay buffers were removed. Afterwards, slides were washed, dried and imaged with in-house developed time-resolved fluorescence imaging system.

Sequence of motilin receptor (Motilin) (O43193 whole entry, species assumed): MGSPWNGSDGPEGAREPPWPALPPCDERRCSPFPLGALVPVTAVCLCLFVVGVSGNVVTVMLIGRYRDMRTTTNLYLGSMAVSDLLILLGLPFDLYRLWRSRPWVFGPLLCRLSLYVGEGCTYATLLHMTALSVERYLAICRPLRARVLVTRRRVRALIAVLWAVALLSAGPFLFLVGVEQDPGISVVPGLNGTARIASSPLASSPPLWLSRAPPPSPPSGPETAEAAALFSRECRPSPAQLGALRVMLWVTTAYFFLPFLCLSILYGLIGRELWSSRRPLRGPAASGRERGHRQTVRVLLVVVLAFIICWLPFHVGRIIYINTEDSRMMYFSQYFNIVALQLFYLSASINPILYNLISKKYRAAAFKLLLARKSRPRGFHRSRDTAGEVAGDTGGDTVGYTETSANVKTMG

binding of EuGTP to the GPCR microspots (receptor activation by agonist): increase the binding of EuGTP
Structure (SMILES): CC[C@H](C)[C@H](NC(=O)[C@@H]1CCCN1C(=O)[C@@H](NC(=O)[C@@H](N)Cc1ccccc1)C(C)C)C(=O)N[C@@H](Cc1ccccc1)C(=O)N[C@H](C(=O)N[C@@H](Cc1ccc(O)cc1)C(=O)NCC(=O)N[C@@H](CCC(=O)O)C(=O)N[C@@H](CC(C)C)C(=O)N[C@@H](CCC(N)=O)C(=O)N[C@@H](CCCNC(=N)N)C(=O)N[C@@H](CCSC)C(=O)N[C@@H](CCC(N)=O)C(=O)N[C@@H](CCC(=O)O)C(=O)N[C@@H](CCCCN)C(=O)N[C@@H](CCC(=O)O)C(=O)N[C@@H](CCCNC(=N)N)C(=O)N[C@@H](CC(N)=O)C(=O)N[C@@H](CCCCN)C(=O)NCC(=O)N[C@@H](CCC(N)=O)C(=O)O)[C@@H](C)O [motilin]
